Experimental data taken from publication PMC11270681, “Synthesis and Systematic Investigation of Lepidiline A and Its Gold(I), Silver(I), and Copper(I) Complexes Using In Vitro Cancer Models and Multipotent Stem Cells” (ACS Omega, 2024).
Several values for one entry are separate records, joined by “and”; a condition that tells them apart may be missing. Identical values can stand only once.

Legend:
[1] = system: Mes-Sa; assay: Cytotoxicity, uterine sarcoma parental line; assay type: cell-based; conditions: fluorescent protein intensity after 144 h
Description: (§1) OVCAR-3 (OVC-3) and OVCAR-8 (OVC-8) ovarian serous adenocarcinomas, IGROV-1 ovarian endometrioid adenocarcinoma, OVCAR-5 (OVC-5) upper gastrointestinal carcinoma, MDA-MB-231 breast adenocarcinoma, and MCF-7 and T-47D invasive breast carcinomas were purchased from the Developmental Therapeutic Program of the National Cancer Institute (NIH, USA) and were cultured in an RPMI medium (Thermo Fisher). Mes-Sa and Mes-Sa/Dx5 uterine sarcoma cell lines were purchased from American Type Culture Collection (ATCC) and were kept in DMEM (Thermo Fisher). Mes-Sa B1 was transfected with the human MDR1 gene, and Mes-Sa mCherry, Mes-Sa B1 mOrange, and Mes-Sa/Dx5 eGFP were engineered to stably express the respective fluorescent proteins previously.[51] Culture media for cancer cells were supplemented with 10% fetal bovine serum, 2 mM L-glutamine, and 100 units/mL penicillin and 100 μg/mL streptomycin (Thermo Fisher). The adipose tissue and bone marrow-derived mesenchymal stem cells (AD-MSC and BM-MSC) were described previously[37] and were kept in DMEM-F12 (Gibco) supplemented with 10% fetal bovine serum, L-glutamine (Thermo Fisher), 0.1% gentamicin (Gibco, 50 mg/mL), and 16 ng/mL fibroblast growth factor 2 (Peprotech). Cells were kept at 37 °C under 5% CO2 and were negative for mycoplasma infection.
(§2) Cytotoxicities of the nonfluorescent cancer cells were assessed with a PrestoBlue cell viability reagent (Thermo Fisher). Briefly, 2500 cells/well were seeded on 384-well plates; then, the next-day drugs were added. After 72 h of incubation, PrestoBlue was added in a 10% final concentration, and after an hour of additional incubation, plates were measured with a PerkinElmer EnSpire plate reader at 555 nm/585 nm excitation/emission wavelengths. Stem cells were seeded on 96-well plates at a density of 5000 cells/well, and the following day, drugs were added for 96 h of incubation; then, viability was assessed with 10% PrestoBlue diluted in PBS. Fluorescent cancer cells were admixed before seeding on 384-well plates at an 800 cells/well density each, thus altogether 2400 cells/well. Drugs were added the following day, and the intensity of the fluorescent proteins was measured after 144 h of incubation at the respective fluorescent channels (excitation/emission, eGFP: 485 nm/510 nm; mCherry: 585 nm/610 nm; mOrange: 545 nm/567 nm). pIC50 values were calculated by a custom program written by Judit Sessler in C#. IC50 values and standard deviation were calculated from average pIC50 values from at least 3 independent measurements.

[2] = system: OVC-5; assay: Cytotoxicity (PrestoBlue), upper gastrointestinal cancer line; assay type: cell-based; conditions: for IC50: OVC-5, 72 h incubation, PrestoBlue
Description: as §1, §2

[3] = system: im. BM-MSC; assay: Cytotoxicity (PrestoBlue), immortalized bone marrow MSC; assay type: cell-based; conditions: 96 h incubation
Description: as §1, §2

[4] = system: Mes-Sa B1; assay: Cytotoxicity, MDR1-transfected uterine sarcoma line; assay type: cell-based; conditions: Mes-Sa B1 (MDR1 transfected, ABCB1 expressing), fluorescent protein intensity after 144 h
Description: as §1, §2

[5] = system: MDA-MB-231; assay: Cytotoxicity (PrestoBlue), breast cancer line; assay type: cell-based; conditions: MDA-MB-231, 72 h incubation
Description: as §1, §2

[6] = system: T-47D; assay: Cytotoxicity (PrestoBlue), breast cancer line; assay type: cell-based; conditions: 72 h incubation
Description: as §1, §2

[7] = system: MCF-7; assay: Cytotoxicity (PrestoBlue), breast cancer line; assay type: cell-based; conditions: MCF-7, 72 h incubation
Description: as §1, §2

[8] = system: Bone marrow MSCs (BM-MSC); assay: Cytotoxicity, range over bone marrow MSCs; assay type: cell-based; conditions: BM-MSC and immortalized BM-MSC
Description: as §1, §2

[9] = system: Mes-Sa/Dx5; assay: Cytotoxicity, doxorubicin-selected MDR uterine sarcoma line; assay type: cell-based; conditions: Mes-Sa/Dx5 (doxorubicin selected, ABCB1 expressing), fluorescent protein intensity after 144 h
Description: as §1, §2

[10] = system: 3 breast cancer cell lines (MDA-MB-231, MCF-7 and T-47D); assay: Cytotoxicity, range over 3 breast cancer cell lines; assay type: cell-based; conditions: MDA-MB-231, MCF-7, T-47D
Description: as §1, §2

[11] = system: BM-MSC; assay: Cytotoxicity (PrestoBlue), bone marrow-derived mesenchymal stem cells; assay type: cell-based; conditions: 96 h incubation
Description: as §1, §2

[12] = system: OVC-3; assay: Cytotoxicity (PrestoBlue), ovarian cancer line; assay type: cell-based; conditions: OVC-3, 72 h incubation
Description: as §1, §2

[13] = system: IGROV-1; assay: Cytotoxicity (PrestoBlue), ovarian cancer line; assay type: cell-based; conditions: IGROV-1, 72 h incubation
Description: as §1, §2

[14] = system: OVC-8; assay: Cytotoxicity (PrestoBlue), ovarian cancer line; assay type: cell-based; conditions: OVC-8, 72 h incubation
Description: as §1, §2

[15] = system: AD-MSC; assay: Cytotoxicity (PrestoBlue), adipose-derived mesenchymal stem cells; assay type: cell-based; conditions: 96 h incubation
Description: as §1, §2

[16] = system: Mes-Sa; assay: H2DCFDA intracellular ROS production assay; assay type: cell-based; conditions: 50 μM, 4 h incubation
Description: (§3) To assess intracellular ROS production, we used a H2DCFDA cellular ROS assay kit (ab113851, Abcam) according to the manufacturer’s instructions. Briefly, 20,000 cells were seeded on 96-well plates. On the following day, cells were washed, and H2DCFDA solution, prepared by avoiding direct light, was added for 45 min. Next, cells were washed, and 50 μM samples of test compounds were aspirated on the cells in a complete and phenol red-free medium (FluoroBrite, Thermo Fisher). At each hour, fluorescence of 2′,7′-dichlorofluorescein (DCF) was measured at 484 nm/535 nm excitation/emission wavelengths. Values were normalized to 0 h measurements. Values indicate at least 3 independent measurements.

[17] = system: T-47D; assay: H2DCFDA intracellular ROS production assay; assay type: cell-based; conditions: 50 μM, 4 h incubation
Description: as §3

[18] = system: MCF-7; assay: H2DCFDA intracellular ROS production assay; assay type: cell-based; conditions: MCF-7, 50 μM, 4 h incubation
Description: as §3

[19] = system: 3 ovarium cancer lines (IGROV-1, OVC-3, and OVC-8); assay: Cytotoxicity, range over 3 ovarium cancer lines; assay type: cell-based; conditions: IGROV-1, OVC-3, OVC-8
Description: as §1, §2

[20] = Stability in serum-free culture medium by HPLC-UV; assay type: physicochemical; conditions: for AUC (HPLC-UV), single measurements 1-5 / AUC (HPLC-UV), average: serum-free culture medium
Description: Stability of the metal complexes in solution was measured in serum-free culture medium. The compounds were dissolved in DMSO right before the experiment. Solutions of Cu-LA and Ag-LA contained 1% final volume of DMSO, while Au-LA contained 30% DMSO. Samples were taken right after dilution, and after 1 h, 2 h, 4 h, 8 h, 16 h, 32 and 48 h, and measured by HPLC-UV.

[21] = system: cancer lines; assay: Cytotoxicity, range over cancer lines; assay type: cell-based; conditions: all cancer lines tested; read-out: IC50 range over cancer lines
Description: as §1
(§4) Cytotoxicities of the nonfluorescent cancer cells were assessed with a PrestoBlue cell viability reagent (Thermo Fisher). Briefly, 2500 cells/well were seeded on 384-well plates; then, the next-day drugs were added. After 72 h of incubation, PrestoBlue was added in a 10% final concentration, and after an hour of additional incubation, plates were measured with a PerkinElmer EnSpire plate reader at 555 nm/585 nm excitation/emission wavelengths. Stem cells were seeded on 96-well plates at a density of 5000 cells/well, and the following day, drugs were added for 96 h of incubation; then, viability was assessed with 10% PrestoBlue diluted in PBS. […] IC50 values and standard deviation were calculated from average pIC50 values from at least 3 independent measurements.

[22] = system: MSCs; assay: Cytotoxicity, range over MSCs; assay type: cell-based; conditions: AD-MSC, BM-MSC, immortalized BM-MSC
Description: as §1, §4

[23] = system: HL-60 leukemia line; set-up: method as in PMID 34808062; conditions: cited from earlier work

## N.N.[Cl][Pt][Cl] [Cisplatin, cisplatin, reference compound]
[1]
  IC50: 1.84 µM
[2]
  IC50: 7 µM
[3]
  IC50: 1.97 µM
[4]
  IC50: 2.09 µM
[5]
  IC50: 2.17 µM
[6]
  IC50: 5.99 µM
[7]
  IC50: 2.71 µM
[8]
  IC50: 2 to 2.3 µM
[9]
  IC50: 4.71 µM
[10]
  IC50: 2.2 to 6 µM
[11]
  IC50: 2.32 µM
[12]
  IC50: 6.64 µM
[13]
  IC50: 2.19 µM
[14]
  IC50: 6.34 µM
[15]
  IC50: 16.7 µM

## Cc1c(C)n(Cc2ccccc2)[c](=[Ag][Cl])n1Cc1ccccc1 [Ag-LA, Chloro-(1,3-dibenzyl-4,5-dimethyl-imidazol-2-ylidene)silver]
[1]
  IC50: 7.9 µM
[2]
  IC50: 40.7 µM
[2]; OVC-5 vs ovarian cancer lines
  Lower susceptibility of OVC-5 compared to the ovarian cancer lines: 2.5 fold
[16]
  More ROS compared to the medium: ~50%
[17]
  Intracellular ROS production compared to the medium: ROS was not elevated
[18]
  More ROS compared to the medium: ~30%
[3]
  IC50: 13.6 µM
[4]
  IC50: 20.5 µM
[5]
  IC50: 12 µM
[6]
  IC50: 5.83 µM
[7]
  IC50: 10.9 µM
[19]
  IC50: 10.5 to 17.4 µM
[8]
  IC50: 5.7 to 15.7 µM
[9]
  IC50: 12 µM
[10]
  IC50: 5.8 to 12 µM
[11]
  IC50: 15.7 µM
[12]
  IC50: 16.3 µM
[13]
  IC50: 15 µM
[14]
  IC50: 17.4 µM
[20]; 0 h
  AUC (HPLC-UV), single measurements 1-5: 898 and 911 and 926 and 921 and 877
[20]; 0 h, Cu-LA, Ag-LA 1% DMSO, Au-LA 30% DMSO
  AUC (HPLC-UV), average: 907
[20]; 1 h
  AUC (HPLC-UV), average: 922
  AUC (HPLC-UV), single measurements 1-5: 923 and 921 and 920
[20]; 2 h
  AUC (HPLC-UV), average: 923
  AUC (HPLC-UV), single measurements 1-5: 922 and 921 and 923 and 928
[20]; 4 h
  AUC (HPLC-UV), average: 924
  AUC (HPLC-UV), single measurements 1-5: 921 and 925 and 927 and 920 and 928
[20]; 8 h
  AUC (HPLC-UV), average: 923
  AUC (HPLC-UV), single measurements 1-5: 922 and 924 and 923
[20]; 16 h
  AUC (HPLC-UV), average: 922
  AUC (HPLC-UV), single measurements 1-5: 921 and 922
[20]; 32 h
  AUC (HPLC-UV), average: 925
  AUC (HPLC-UV), single measurements 1-5: 925 and 926 and 924
[20]; 48 h
  AUC (HPLC-UV), average: 921
  AUC (HPLC-UV), single measurements 1-5: 917 and 922 and 920
[20]; HPLC-UV, observed 48 h
  Stability in serum-free culture medium: stable
[15]
  IC50: 15.6 µM

## CC(=O)OC[C@H]1O[C@@H]([S-])[C@H](OC(C)=O)[C@@H](OC(C)=O)[C@@H]1OC(C)=O.CCP(CC)CC.[Au+] [Auranofin, auranofin, reference compound]
[1]
  IC50: 2.21 µM
[2]
  IC50: 6.96 µM
[2]; listed as auranofin
  IC50: 7 µM
[3]
  IC50: 2.61 µM
[4]
  IC50: 3.22 µM
[5]
  IC50: 1.15 µM
[6]
  IC50: 2.31 µM
[7]
  IC50: 2.83 µM
[19]
  IC50: 1.7 to 2.3 µM
[9]
  IC50: 1.4 µM
[21]
  IC50: 1.2 to 7 µM
[10]
  IC50: 1.2 to 2.8 µM
[11]
  IC50: 2.88 µM
[22]
  IC50: 2.2 to 2.9 µM
[12]
  IC50: 1.71 µM
[13]
  IC50: 1.93 µM
[14]
  IC50: 2.27 µM
[15]
  IC50: 2.16 µM

## COc1cccc(C[n+]2c(C)c(C)n(Cc3ccccc3)c2C)c1 [lepidiline D]
[23]
  IC50: 1.1 µM
